Assay results taken from PubChem BioAssay AID1963862 (Molecular Pharmacology Branch, DTP, NCI, 2024).

Test system: KRAS patient-derived spheroids with HUVEC/MSC, viability
Test: Anticancer human tumor 941728-121-R-J1-PDC patient-derived lung adenocarcinoma cell line growth inhibition [KRAS2]
Conditions: for IC50: curve of first compound; for viability, T/C: stronger effect = lower value; active means viability on the fitted dose curve at most 10% of control; inactive means the rest
Summary of the method: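 Combination screen of spheroid viability in tumor-cell co-cultures with endothelial (HUVEC) and mesenchymal stem cell stroma. Each agent was tested in half-log dilutions, topping at clinical Cmax or at 10 microM without a known Cmax.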

[1] = second compound 0.1 µM, first compound 0.0316 µM
[2] = second compound 0.316 µM, first compound 0.0316 µM
[3] = second compound 1 µM, first compound 0.0316 µM
[4] = second compound 3.16 µM, first compound 0.0316 µM
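Further: spheroids exposed to agents for seven days before readout.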

CC(=O)Nc1cccc(-n2c(=O)n(C3CC3)c(=O)c3c(Nc4ccc(I)cc4F)n(C)c(=O)c(C)c32)c1 + CNCc1ccccc1-c1csc(C(C)Nc2nc(C)nc3cc(OC)c(OC)cc23)c1
active: viability, T/C [3] 7.52% | viability, T/C (second compound 3.16 µM, first compound 0.0001 µM) 0.3% | viability, T/C (second compound 3.16 µM, first compound 0.000316 µM) 0.14% | viability, T/C (second compound 3.16 µM, first compound 0.001 µM) 0.76% | viability, T/C (second compound 3.16 µM, first compound 0.00316 µM) 0.17% | viability, T/C (second compound 3.16 µM, first compound 0.01 µM) 0.16% | viability, T/C [4] 0.25% | viability, T/C (second compound 10 µM, first compound 0.0001 µM) 0.16% | viability, T/C (second compound 10 µM, first compound 0.000316 µM) 0.16% | viability, T/C (second compound 10 µM, first compound 0.001 µM) 0.17% | viability, T/C (second compound 10 µM, first compound 0.00316 µM) 0.15% | viability, T/C (second compound 10 µM, first compound 0.01 µM) 0.14% | viability, T/C (second compound 10 µM, first compound 0.0316 µM) 0.26%
inactive: viability, T/C (second compound 0.1 µM, first compound 0.0001 µM) 51.3% | viability, T/C (second compound 0.1 µM, first compound 0.000316 µM) 46.8% | viability, T/C (second compound 0.1 µM, first compound 0.001 µM) 38.1% | viability, T/C (second compound 0.1 µM, first compound 0.00316 µM) 37.7% | viability, T/C (second compound 0.1 µM, first compound 0.01 µM) 35.7% | viability, T/C [1] 27.9% | viability, T/C (second compound 0.316 µM, first compound 0.0001 µM) 44.4% | viability, T/C (second compound 0.316 µM, first compound 0.000316 µM) 44.1% | viability, T/C (second compound 0.316 µM, first compound 0.001 µM) 34.2% | viability, T/C (second compound 0.316 µM, first compound 0.00316 µM) 31.8% | viability, T/C (second compound 0.316 µM, first compound 0.01 µM) 30.5% | viability, T/C [2] 21.9% | viability, T/C (second compound 1 µM, first compound 0.0001 µM) 35.3% | viability, T/C (second compound 1 µM, first compound 0.000316 µM) 33% | viability, T/C (second compound 1 µM, first compound 0.001 µM) 26.8% | viability, T/C (second compound 1 µM, first compound 0.00316 µM) 23% | viability, T/C (second compound 1 µM, first compound 0.01 µM) 14%
< 0.1 nM: IC50 (second compound 0.316 µM) | IC50 (second compound 1 µM) | IC50 (second compound 3.16 µM) | IC50 (second compound 10 µM)
0.119 nM: IC50 (second compound 0.1 µM)

CC(C)NCC(C(=O)N1CCN(c2ncnc3c2C(C)CC3O)CC1)c1ccc(Cl)cc1 (stereo not given) + C=CC(=O)N1CCN(c2nc(OCC3CCCN3C)nc3c2CCN(c2cccc4cccc(C)c24)C3)CC1CC#N
active: viability, T/C (second compound 0.1 µM, first compound 10 µM) 7.59% | viability, T/C (second compound 1 µM, first compound 10 µM) 4.68% | viability, T/C [4] 0.13% | viability, T/C (second compound 3.16 µM, first compound 0.1 µM) 0.12% | viability, T/C (second compound 3.16 µM, first compound 0.316 µM) 0.12% | viability, T/C (second compound 3.16 µM, first compound 1 µM) 0.15% | viability, T/C (second compound 3.16 µM, first compound 3.16 µM) 0.18% | viability, T/C (second compound 3.16 µM, first compound 10 µM) 0.25%
inactive: viability, T/C (second compound 0.0316 µM, first compound 0.0316 µM) 29.1% | viability, T/C (second compound 0.0316 µM, first compound 0.1 µM) 29.5% | viability, T/C (second compound 0.0316 µM, first compound 0.316 µM) 23.4% | viability, T/C (second compound 0.0316 µM, first compound 1 µM) 23.5% | viability, T/C (second compound 0.0316 µM, first compound 3.16 µM) 18% | viability, T/C (second compound 0.0316 µM, first compound 10 µM) 7.87% | viability, T/C [1] 27.3% | viability, T/C (second compound 0.1 µM, first compound 0.1 µM) 30% | viability, T/C (second compound 0.1 µM, first compound 0.316 µM) 22.8% | viability, T/C (second compound 0.1 µM, first compound 1 µM) 19.5% | viability, T/C (second compound 0.1 µM, first compound 3.16 µM) 14.5% | viability, T/C [2] 26.8% | viability, T/C (second compound 0.316 µM, first compound 0.1 µM) 26.6% | viability, T/C (second compound 0.316 µM, first compound 0.316 µM) 26.5% | viability, T/C (second compound 0.316 µM, first compound 1 µM) 18.9% | viability, T/C (second compound 0.316 µM, first compound 3.16 µM) 15.7% | viability, T/C (second compound 0.316 µM, first compound 10 µM) 8.89% | viability, T/C [3] 27.4% | viability, T/C (second compound 1 µM, first compound 0.1 µM) 24.1% | viability, T/C (second compound 1 µM, first compound 0.316 µM) 18.9% | viability, T/C (second compound 1 µM, first compound 1 µM) 15% | viability, T/C (second compound 1 µM, first compound 3.16 µM) 12.5%
< 31.6 nM: IC50 (second compound 0.0316 µM) | IC50 (second compound 0.1 µM) | IC50 (second compound 0.316 µM) | IC50 (second compound 1 µM) | IC50 (second compound 3.16 µM)
